Usually IC50 stands for the midpoint of a concentration-inhibition curve. A higher IC50 goes with a need for much substance.

The test deals with T1, Axl (Homo sapiens, UniProt P30530).
T1 construct: endogenous in cells; host or cells: HeLa cells
T1 sequence (P30530 26-894): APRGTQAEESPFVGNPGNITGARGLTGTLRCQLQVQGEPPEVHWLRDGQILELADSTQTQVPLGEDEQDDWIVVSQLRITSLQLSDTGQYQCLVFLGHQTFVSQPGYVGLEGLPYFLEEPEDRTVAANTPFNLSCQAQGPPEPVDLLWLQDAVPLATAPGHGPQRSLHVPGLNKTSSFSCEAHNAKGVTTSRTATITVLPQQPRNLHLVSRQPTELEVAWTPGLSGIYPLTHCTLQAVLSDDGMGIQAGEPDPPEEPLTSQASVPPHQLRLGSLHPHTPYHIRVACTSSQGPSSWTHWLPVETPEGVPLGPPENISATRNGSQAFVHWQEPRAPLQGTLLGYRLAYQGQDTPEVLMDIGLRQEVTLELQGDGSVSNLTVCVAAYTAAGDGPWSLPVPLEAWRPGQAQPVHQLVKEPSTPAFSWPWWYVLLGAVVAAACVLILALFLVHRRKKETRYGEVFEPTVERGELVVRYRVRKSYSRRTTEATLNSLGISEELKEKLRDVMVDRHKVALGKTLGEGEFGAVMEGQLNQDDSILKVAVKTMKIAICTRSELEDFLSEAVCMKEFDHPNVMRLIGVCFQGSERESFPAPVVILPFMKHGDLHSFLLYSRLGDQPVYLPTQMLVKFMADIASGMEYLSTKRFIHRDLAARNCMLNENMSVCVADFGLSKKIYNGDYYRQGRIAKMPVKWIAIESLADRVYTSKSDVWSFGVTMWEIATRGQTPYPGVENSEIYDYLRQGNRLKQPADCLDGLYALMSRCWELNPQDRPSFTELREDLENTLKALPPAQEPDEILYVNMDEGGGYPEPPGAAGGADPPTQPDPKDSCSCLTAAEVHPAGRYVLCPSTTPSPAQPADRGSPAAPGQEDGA
Kind of test: Phospho-Akt In-Cell Western Assay (ability to inhibit Axl activity). It is filed as cell-based. Conditions: Hela cells, stimulated by Axl-antibody cross-linking, phospho-Akt chemiluminescence normalized to relative cell number. The method, then: The compounds of the invention were tested in the following assay for their ability to inhibit Axl activity.
Phospho-Akt In-Cell Western Assay
• Cell culture plate: 96 well assay plate (Corning 3610), white, clear bottom, tissue-culture treated. • Cells: Hela cells. • Starvation medium: For Axl stimulation: 0.5% FCS (fetal calf serum) in DMEM, plus Axl/Fc (extracellular domain of AXL fused to immunoglobulin Fc region) (R&D, 154-AL) 500 ng/mL. • For EGF (epidermal growth factor) stimulation: 0.5% FCS in DMEM (Dulbecco's modified Eagles medium). • Poly-L-Lysine 0.01% solution (the working solution): 10 μg/ml, dilute In PBS (phosphate buffered saline). • Axl antibody cross-linking: • 1st: Mouse anti-Axl (R&D, MAB154). • 2nd: Biotin-SP-conjugated AffiniPure goat anti-mouse IgG (H+L) (Jackson ImmunoResearch #115-065-003). • Fixing buffer: 4% formaldehyde in PBS. • Wash buffer: 0.1% TritonX-100 in PBS. • Quenching buffer: 3% H2O2, 0.1% Azide in wash buffer, Azide and hydrogen peroxide (H2O2) are added fresh. • Blocking buffer: 5% BSA in TBST (tris buffered saline plus 0.1% Tween 20). • Primary antibody: Rabbit anti-human Phospho-Akt antibody (Cell Signaling 9271): 1×250 diluted in blocking buffer. • Secondary antibody: HRP (horse radish peroxidase)-conjugated Goat anti-Rabbit secondary, stock solution: Jackson ImmunoResearch (Goat anti-Rabbit HRP, #111-035-144) 1:1 diluted in glycerol, store at −20° C. The working solution: 1×2000 dilution of stock in blocking buffer. • Chemiluminescent working solution (Pierce, 37030): SuperSignal ELISA (enzyme linked immunosorbant assay) Pico Chemiluminescent substrate. • Crystal Violet solution: Stock: 2.5% Crystal violet in methanol, filtered and kept at ambient temperature. The working solution: dilute the stock 1:20 with PBS immediately before use. • 10% SDS: working solution: 5% SDS (sodium dodecylsulfate), diluted in PBS Methods: Day 1:
A 96 well TC (tissue culture treated) plate was coated with 10 μg/mL poly-L-Lysine at 37° C. for 30 min, washed twice with PBS, and air-dried for 5 minutes before cells were added. Hela cells were seeded at 10,000 cells/well and the cells were starved in 100 μL starvation medium containing Axl/Fc for 24 hrs.
The cells were pre-treated with test compounds by adding 100 μL of 2× test compound to the starvation medium on the cells. The cells were incubated at 37° C. for 1 hr before stimulation.
The cells were stimulated by Axl-antibody cross-linking as follows: A 5×1st/2nd Axl antibody mixture was made (37.5 μg/mL 1st/100 μg/mL 2nd) in starvation medium and nutated at 4° C. with thorough mixing for 1-2 hours for clustering. The resulting mix was warmed to 37° C. 50 μL of 5× Axl 1st/2nd of antibody cluster was added to the cells and the cells were incubated at 37° C. for 5 min.
After 5 minutes stimulation, the plate was flicked to remove medium and the plate was tapped onto paper towels. Formaldehyde (4.0% in PBS, 100 μL) was added to fix the cells and the cells were incubated at ambient temperature for 20 min without shaking.
The cells were washed with a plate washer buffer to remove the formaldehyde solution. The plate was flicked to removed excess wash buffer and tapped onto paper towels. Quenching buffer (100 μL) was added to each well and the cells were incubated at ambient temperature for 20 minutes without shaking.
The cells were washed with a plate washer buffer to remove the quenching buffer. Blocking buffer (100 μL) was added and the cells were incubated at ambient temperature for at least an hour with gentle shaking.
The cells were washed with a plate washer buffer and diluted primary antibody (50 μL) was added to each well (blocking buffer was added to the negative control wells instead). The plates were incubated overnight at 4° C. with gentle shaking.
The wash buffer was removed, diluted secondary antibody (100 μL) was added, and the cells were incubated at ambient temperature for 1 hour with gentle shaking. […]

The compound `CN1CCN(c2ccc(Nc3nc(N)n(-c4ccc5c(n4)[C@@H]4C[C@H](C5)C4(C)C)n3)cc2)CC1` [Compound 38, 1-(7,7-dimethyl-(6R,8R)6,8-methano-5,6,7,8-tetrahydroquinoline-2-yl)-N^3-(4-(4-methylpiperazin-1-yl)phenyl)-1H-1,2,4-triazole-3,5-diamine] returned a half-inhibitory concentration (IC50) of under 1000 nM.

`CN1CCN(C2CCN(c3ccc(Nc4nc(N)n(-c5cc(-c6ccccc6)c6c(n5)C5CCN6CC5)n4)cc3F)CC2)CC1` [Compound 41, 1-(1,4-ethano-8-phenyl-1,2,3,4-tetrahydro-1,5-naphthyridin-6-yl)-N^3-(3-fluoro-4-(4-(4-methylpiperazin-1-yl)piperidin-1-yl)phenyl)-1H-1,2,4-triazole-3,5-diamine] gave a half-maximal inhibitory concentration (IC50) of under 1000 nM.

Compound “1-(5,8-methano-5,6,7,8-tetrahydroquinazolin-2-yl)-N^3-(4-(morpholin-1-yl)phenyl)-1H-1,2,4-triazole-3,5-diamine [Compound 5]” returned a half-inhibitory concentration (IC50) of 1000 to 10000 nM.

In turn, `Nc1nc(Nc2ccc(N3CCC(N4CCCC4)CC3)c(F)c2)nn1-c1cc(-c2ccccc2)c2c(n1)C1CCN2CC1` [Compound 25, 1-(1,4-ethano-8-phenyl-1,2,3,4-tetrahydro-1,5-naphthyridin-6-yl)-N^3-(3-fluoro-4-(4-(pyrrolidin-1-yl)piperidin-1-yl)phenyl)-1H-1,2,4-triazole-3,5-diamine] displayed an IC50 of under 1000 nM.

On to `CN1CCCC(Oc2ccc(Nc3nc(N)n(-c4ncc5c(n4)C4CCC5C4)n3)cc2)C1` (stereo not shown) [Compound 3, (5,8-methano-5,6,7,8-tetrahydroquinazolin-2-yl)-N^3-(4-(1-methyl(piperidin-3-yl)oxy)phenyl)-1H-1,2,4-triazole-3,5-diamine], for which the half-maximal inhibitory concentration (IC50) is under 1000 nM.

Compound `Nc1nc(Nc2ccc(N3CCN(C4CC5CCC4C5)CC3)cc2)nn1-c1ncc2c(n1)C1CCC2C1` (stereo not shown) [Compound 8, N^3-(4-(4-(bicyclo[2.2.1]heptan-2-yl)piperazin-1-yl)phenyl)-1-(5,8-methano-5,6,7,8-tetrahydroquinazolin-2-yl)-1H-1,2,4-triazole-3,5-diamine] registered an IC50 of under 1000 nM.

Take `Nc1nc(Nc2ccc(N3CCC(N4CCCC4)CC3)c(F)c2)nn1-c1ncc2c(n1)C1CCC2C1` (stereo not shown) [Compound 11, 1-(5,8-methano-5,6,7,8-tetrahydroquinazolin-2-yl)-N^3-(3-fluoro-4-(4-(pyrrolidin-1-yl)piperidin-1-yl)phenyl)-1H-1,2,4-triazole-3,5-diamine]: the IC50 is under 1000 nM.

In the case of `Nc1nc(Nc2ccc(N3CCN(C4CCCCC4)CC3)cc2)nn1-c1ncc2c(n1)C1CCC2C1` (stereo not shown) [Compound 6, 1-(5,8-methano-5,6,7,8-tetrahydroquinazolin-2-yl)-N^3-(4-(4-cyclohexanylpiperazin-1-yl)phenyl)-1H-1,2,4-triazole-3,5-diamine], the half-inhibitory concentration (IC50) is under 1000 nM.

On to `CN1CCC(c2ccc(Nc3nc(N)n(-c4cc(-c5ccccc5)c5c(n4)C4CCN5CC4)n3)cc2)CC1` [Compound 67, 1-(1,4-ethano-8-phenyl-1,2,3,4-tetrahydro-1,5-naphthyridin-6-yl)-N^3-(4-(1-methylpiperidin-4-yl)phenyl)-1H-1,2,4-triazole-3,5-diamine], for which the half-maximal inhibitory concentration (IC50) is under 1000 nM.

Consider `Nc1nc(Nc2ccc3c(c2)CCC(=O)CC3)nn1-c1cc(-c2ccccc2)c2c(n1)C1CCN2CC1` [Compound 69, 1-(1,4-ethano-8-phenyl-1,2,3,4-tetrahydro-1,5-naphthyridin-6-yl)-N^3-(7-oxo-6,7,8,9-tetrahydro-5H-benzo[7]annulene-3-yl)-1H-1,2,4-triazole-3,5-diamine], for which the IC50 lay within 1000 to 10000 nM.

In turn, `Cc1csc2c(-n3nc(Nc4cnc5c(c4)C4CCC(C5)N4C)nc3N)ncnc12` (stereo not shown) [Compound 26, 1-(7-methylthieno[3,2-d]pyrimidin-4-yl)-N^3-(5,7-ethano-5,6,7,8-tetrahydro-6-methyl-1,6-naphthyridin-3-yl)-1H-1,2,4-triazole-3,5-diamine] gave an IC50 of under 1000 nM.

Compound `Nc1nc(Nc2ccc(N3CCN(CC(=O)O)CC3)c(F)c2)nn1-c1cc(-c2ccccc2)c2c(n1)C1CCN2CC1` [Compound 56, 1-(1,4-ethano-8-phenyl-1,2,3,4-tetrahydro-1,5-naphthyridin-6-yl)-N^3-(3-fluoro-4-(4-carboxymethylpiperazin-1-yl)phenyl)-1H-1,2,4-triazole-3,5-diamine] showed a concentration for half-maximal inhibition (IC50) of under 1000 nM.

Take `Nc1nc(Nc2ccc(N3CCC(N4CCC(C(=O)O)CC4)CC3)c(F)c2)nn1-c1cc(-c2ccccc2)c2c(n1)C1CCN2CC1` [Compound 59, 1-(1,4-ethano-8-phenyl-1,2,3,4-tetrahydro-1,5-naphthyridin-6-yl)-N^3-(3-fluoro-4-(4-(4-carboxypiperidin-1-yl)piperidin-1-yl)phenyl)-1H-1,2,4-triazole-3,5-diamine]: the concentration for half-maximal inhibition (IC50) was under 1000 nM.

`Nc1nc(Nc2ccc(N3CCC(N4CCCC4)CC3)c(F)c2)nn1-c1cc(-c2cccs2)c2c(n1)C1CCN2CC1` [Compound 30, 1-(1,4-ethano-8-thiophen-2-yl-1,2,3,4-tetrahydro-1,5-naphthyridin-6-yl)-N^3-(3-fluoro-4-(4-(pyrrolidin-1-yl)piperidin-1-yl)phenyl)-1H-1,2,4-triazole-3,5-diamine] gave an IC50 of under 1000 nM.

In turn, `Nc1nc(Nc2ccc3c(c2)CCC(N2CCC(N4CCCC4)CC2)CC3)nn1-c1cc(-c2ccccc2)c2c(n1)C1CCN2CC1` (stereo not shown) [Compound 71, 1-(1,4-ethano-8-phenyl-1,2,3,4-tetrahydro-1,5-naphthyridin-6-yl)-N^3-(7-(4-pyrrolidin-1-ylpiperidin-1-yl)-6,7,8,9-tetrahydro-5H-benzo[7]annulene-3-yl)-1H-1,2,4-triazole-3,5-diamine] registered a 50% inhibitory concentration (IC50) of under 1000 nM.

The compound `Cc1csc2c(-n3nc(Nc4cnc5c(c4)CN4CCC5CC4)nc3N)ncnc12` [Compound 27, 1-(7-methylthieno[3,2-d]pyrimidin-4-yl)-N^3-(6,9-ethano-6,7,8,9-tetrahydro-5H-pyrido[3,2-c]azepin-3-yl)-1H-1,2,4-triazole-3,5-diamine] had a half-inhibitory concentration (IC50) of under 1000 nM.

The values above are taken from US8609650B2, “Bridged bicyclic aryl and bridged bicyclic heteroaryl substituted triazoles useful as Axl inhibitors” (Rigel Pharmaceuticals, Inc., priority 2006, dated 2013).
